The values that follow come from publication PMC6316600, “Analgesic Activity of Acid-Sensing Ion Channel 3 (ASIС3) Inhibitors: Sea Anemones Peptides Ugr9-1 and APETx2 versus Low Molecular Weight Compounds” (Marine Drugs, 2018).

Entries after “also recorded” stand apart in the source; their conditions may differ. Bridge positions count the residues as written; N and C are the ends. Peptide text beside a SMILES is read from it.

Test [1] has as its system mice. Nature of the test: CFA-induced thermal hyperalgesia. In kind it is in vivo, CD-1 mice. The following applies: for Effect in CFA test at lowest dose / Dose dependence of effect, thermal hyperalgesia / Dose of maximal effect, thermal hyperalgesia / Reversal of thermal hyperalgesia, 1 mg/kg compared with 0.001–0.002 mg/kg / Thermal hyperalgesia result (in words): intramuscular; for Effect confirmed in independent experiment: sevanol 0.01 mg/kg, Ugr9-1 0.02 mg/kg, data not shown. How it is done: CFA-induced thermal hyperalgesia is a result of different inflammatory pathways’ action on thermal sensitivity of the paw. Injection of CFA into the hind paw provokes increased sensitivity to noxious mechanical and thermal stimuli together with swelling of the paw due to the inflammatory process. […] For APETx2 (Figure 4B), sevanol (Figure 4C), and Ugr9-1 (Figure 4D), the dose dependency of the analgesic effect was evaluated.
Figure 4 Effect of ligands on the CFA-induced thermal hyperalgesia test. Test was performed 2 h after intramuscular administration of ASIC3 antagonists. (A) Comparison between ligands at the dose of 1 mg/kg; (B–D) Dose-dependent chart of ligands’ effect. […] Results are presented as mean ± SEM (n = 7–8). * p < 0.05, ** p < 0.01, *** p < 0.001 versus saline group (ANOVA followed by a Tukey’s test).
(§1) Adult male CD-1 mice (Animal Breeding Facility Branch of Shemyakin-Ovchinnikov Institute of Bioorganic Chemistry, Russian Academy of Sciences, Pushchino, Russia) weighing 20–25 g were used. Animals that originally passed clinical examination that confirmed no deviations in health were divided into groups (at least eight male mice per group) using the principle of randomization. The average body weight of animals in each group was not statistically different between groups. Animals were housed at room temperature (23 ± 2 °C) and subjected to a 12-h light-dark cycle with food and water available ad libitum. All experiments were performed after receiving approval from the Animal Care and Use Committee of the Branch of the Institute of Bioorganic Chemistry, Russian Academy of Sciences (IBCh RAS) (Pushchino, Russia Federation). The samples were administered intramuscularly 2 h before testing (4 h in the open field test). The initial dose of 1 mg/kg was investigated for all samples, which was further reduced 5, 50, and 500 times for peptides.
CFA suspended in an oil/saline (1:1) emulsion was injected into the dorsal surfaces of the left hind paws of mice (20 µL/paw) 24 h before the samples’ intramuscular injection. The control mice received 20 µL of saline (intraplantar). The paw withdrawal latencies to thermal stimulation (53 °C) were measured 2 h after the sample injection. The paw diameter was evaluated before the CFA injection, before the samples and saline administration, and 2, 4, and 24 h after the administration using a digital calliper.
(§2) The data significance in animal tests was determined by an analysis of variance followed by a Tukey’s test. Data are presented as the mean ± SEM.

In test [2] the test system is mice. In words: Acetic acid-induced writhing. In kind it is in vivo, CD-1 mice. How it is done:
Acetic acid-induced writhing is based on irritation of tissues and organs of the abdomen by low pH and could be considered the most appropriate test for influence on acid-induced pain. […] It is interesting that the effects of sevanol and Ugr9-1 plateaued at a wide range of doses (0.01–1mg/kg for sevanol and 0.02–1 mg/kg Ugr9-1) (Figure 3C,D).
Figure 3 Effects of ligands in an acetic acid-induced writhing test. […] (A) Efficacy of ASIC3 antagonists at a dose of 1 mg/kg. (B–D) Dose-dependent chart of ligands’ effects: APETx2 (B), sevanol (C), and Ugr9-1 (D). Results are presented as mean ± SEM (n = 8). ** p < 0.01, *** p < 0.001 versus saline group (ANOVA followed by a Tukey’s test).
as §1, with “The initial dose of 1 mg/kg was investigated for all samples, which was further reduced 5, 50, and 500 times for peptides.” left out
Separate groups of mice were used. Writhes were caused 2 h after the intramuscular injection of the samples (saline for control mice) with the injection of 0.6% acetic acid in saline (10 mL/kg intraperitoneally). Mice were immediately placed inside transparent glass cylinders, and the latency of a first writhe and the number of writhes were recorded for 15 min.
as §2

The test system of another test is ASIC3. The following applies: cited from earlier work. From the text: An inhibition of ASIC3 was reported to be an attractive approach to producing analgesia. […] Other nonspecific substances can also influence ASIC3 activity.
[3] abbreviates: intramuscular, 2 h before, n = 8.

With `CC[C@H](C)[C@H](N)C(=O)N[C@@H](CO)C(=O)N[C@H](C(=O)N[C@@H](CC(=O)O)C(=O)N1CCC[C@H]1C(=O)N1CCC[C@H]1C(=O)N[C@H]1CSSC[C@@H](C(=O)NCC(=O)N[C@@H](C)C(=O)N[C@H](C(=O)O)C(C)C)NC(=O)CNC(=O)[C@H](Cc2ccc(O)cc2)NC(=O)[C@H](C)NC(=O)[C@H](CC(=O)O)NC(=O)[C@H](Cc2ccc(O)cc2)NC(=O)[C@H](C(C)C)NC(=O)[C@@H]2CSSC[C@H](NC(=O)[C@H](Cc3ccccc3)NC(=O)[C@H](CCCNC(=N)N)NC1=O)C(=O)N[C@@H](Cc1ccc(O)cc1)C(=O)N[C@@H](Cc1c[nH]cn1)C(=O)N[C@@H](CCCNC(=N)N)C(=O)N[C@@H](CC(=O)O)C(=O)NCC(=O)N[C@@H](CO)C(=O)NCC(=O)N[C@@H](CC(N)=O)C(=O)N2)[C@@H](C)CC` [Ugr9-1] (H-ISIDPPCRFCYHRDGSGNCVYDAYGCGAV-OH; disulfide 7-26, 10-19; N-terminus and C-terminus assumed), the “Effect in CFA test at lowest dose” value with mice [1] (0.002 mg/kg (Ugr9-1), 2 h before) is “absence of the effect”. In the test with mice [1] (2 h before, n = 7–8), the “Dose dependence of effect, thermal hyperalgesia” value is reported as “bell-shaped; also recorded: nonlinear dose response”; the “Dose of maximal effect, thermal hyperalgesia” value was 0.02 mg/kg; the “Reversal of thermal hyperalgesia, 1 mg/kg compared with 0.001–0.002 mg/kg” value is reported as “did not differ significantly”; the “Thermal hyperalgesia result (in words)” value was “reversed CFA-induced thermal hyperalgesia and prolonging withdrawal latency of the inflamed hind paw on a hot plate”. Also, in the test with mice [1], the “Effect confirmed in independent experiment” value is listed as “confirmed in the independent experiment”. Moreover, the “Effective dose, lower than that of APETx2, writhing test” value with mice [2] (Ugr9-1 versus APETx2) is on record as 10 times. In addition, the “Writhing test result (in words)” value in the test with mice [2] (intramuscular, 2 h before) is “attenuated the response to the intraperitoneal administration of acetic acid; also recorded: The most stable effect was produced by Ugr9-1, and it was slightly more significant in lower doses (0.002 mg/kg)”. The “Dose of maximal effect, writhing test” value in the test on mice [2] (setting [3]) was determined as 0.02 mg/kg. Moreover, the “Inhibition of ASIC3 current components” value in the test with ASIC3 was “inhibit both components of the ASIC3 current”.

Take `O=C(O)Cc1ccccc1Nc1c(Cl)cccc1Cl` [diclofenac, reference compound]: the “Reversal of thermal hyperalgesia, comparison at 1 mg/kg” value in the test on mice [1] (1 mg/kg intramuscular, 2 h before, hot plate 53 °C, n = 7–8) is “equal potency in the reversal of thermal hyperalgesia, which exceeded the analgesic potency of sevanol and Ugr9-1”. Also, in the test with mice [2] (intramuscular, 2 h before, all doses), the “Maximal effect of reducing pain, writhing test” value was ~ 75%. Besides, the “Inhibition of ASIC3 / ASICs currents” value in the test on ASIC3 (sensory neurons and heterologous-expressed ASIC3) is “inhibit ASICs currents directly on sensory neurons and heterologous-expressed ASIC3 channels”.

As to `O=C(O)C[C@H](C(=O)O)[C@@H](OC(=O)C1=Cc2cc(O)c(O)cc2[C@@H](c2ccc(O)c(O)c2)[C@@H]1C(=O)O[C@@H](C(=O)O)[C@H](CC(=O)O)C(=O)O)C(=O)O` [sevanol], in the test on mice [1] (0.001 mg/kg (sevanol), 2 h before), the “Effect in CFA test at lowest dose” value was “absence of the effect”. In the test on mice [1] (2 h before, n = 7–8), the “Dose dependence of effect, thermal hyperalgesia” value is given as “bell-shaped; also recorded: nonlinear dose response”; the “Dose of maximal effect, thermal hyperalgesia” value amounted to 0.01 mg/kg; the “Reversal of thermal hyperalgesia, 1 mg/kg compared with 0.001–0.002 mg/kg” value is on record as “did not differ significantly”; the “Thermal hyperalgesia result (in words)” value is “reversed CFA-induced thermal hyperalgesia and prolonging withdrawal latency of the inflamed hind paw on a hot plate”. In the test on mice [1], the “Effect confirmed in independent experiment” value was “confirmed in the independent experiment”. In the test on mice [2] (10 mg/kg intramuscular, 2 h before, n = 8), this compound returned an Inhibition of writhing of 76%. Further, the “Writhing test result (in words)” value in the test on mice [2] (intramuscular, 2 h before) was “attenuated the response to the intraperitoneal administration of acetic acid; also recorded: The efficacy of sevanol was also high”. For the same compound, in the test with mice [2] (setting [3]), the “Dose of maximal effect, writhing test” value is 10 mg/kg. In the test with mice [2] (sevanol versus APETx2 and Ugr9-1), the “In vivo effect, compared with peptides” value is on record as “almost equipotent effect in vivo”. For the same compound, the “Inhibition of transient and sustained ASIC3 currents” value in the test with ASIC3 is “inhibited the amplitude of transient and sustained ASIC3 currents”.
